Reference: patent publication US6399655B1, “Method for the prophylactic treatment of cataracts” (Johns Hopkins University, School of Medicine, priority 1998, dated 2002)

Legend:
retina = assay: Retinal toxicity by electroretinography after oral genistein; assay type: in vivo; details: 75 mg/kg/day to 300 mg/kg/day, six months, Zucker diabetic fatty rats
Text: (§1) An advantage of genistein is that it is very safe and efficacious. […] Also, no effect of orally administered genistein was found with respect to the weight of the ovaries and the uterus in female rats.

[1] = system: Zucker diabetic fatty (ZDF, fa/fa) rats; assay: Cataract formation in Zucker diabetic fatty rats fed genistein in chow for six months; assay type: in vivo, rat
Description: (§2) Thirty pair of litter mates of Zucker rats, i.e., thirty male retired breeder Zucker diabetic fatty (ZDF, fa/fa) rats and thirty male retired breeder lean Zucker (fa/+) rats, were obtained (Genetic Models, Inc., Indianapolis, Ind.). The animals were treated in accordance with The Association for Research in Vision and Ophthalmology (ARVO) Statement for the Use of Animals in Ophthalmic and Vision Research. The average blood glucose value was more than 500 mg/dl for the Zucker diabetic fatty rats and 120 mg/dl for the control lean rats as measured by glucose oxidase assay at the time of death (Danis et al. (1993), supra).
(§3) Zucker diabetic fatty rats were divided into four groups and fed Purina 5008 rat chow containing varying concentrations of genistein: 0 mg/kg chow, 75 mg/kg chow, 150 mg/kg chow and 300 mg/kg chow. Cataract formation was assessed after six months of treatment. The extent of cataract formation was determined after dilating pupils with phenylephrine (2.5%) and Tropicamide (1%) in rats under general anesthesia resulting from intraperitoneal injections of ketamine (40 mg/kg) and xylazine (4 mg/kg). Disease progression was categorized as total cataract, partial cataract (mainly minimal posterior subcapsular cataract), or no cataract.

lean Zucker (fa/+) rats = assay: Cataract formation in lean Zucker control rats fed genistein in chow; assay type: in vivo, rat; details: lean Zucker rats, 0, 75, 150 or 300 mg Genistein/kg chow, six months
Description: as §2, §3
Zucker lean rats were also divided into 4 groups and fed Purina 5008 chow containing 0, 75, 150 or 300 mg Genistein/ kg chow. […]

[2] = Weight of the ovaries and the uterus after oral genistein; assay type: in vivo; details: oral administration, female rats
Text: as §1

[3] = Food intake and body weight after oral genistein; assay type: in vivo; details: oral administration, male and female rats
Text: as §1

## O=c1c(-c2ccc(O)cc2)coc2cc(O)cc(O)c12 [genistein, 5,7-dihydroxy-3-(4-hydroxyphenyl)-4H-1-benzopyran-4-one]
retina
  Toxicity to the retina as measured by electroretinography: nontoxic to the retina
[1]; 75 mg/kg chow, n = 7
  Partial Cataract (number of rats): 3
  Total Cataract (number of rats): 4
[1]; 150 mg/kg chow, n = 8
  No Cataract (number of rats): 2
  Partial Cataract (number of rats): 2
  Total Cataract (number of rats): 4
[1]; 300 mg/kg chow, n = 8
  Partial Cataract (number of rats): 3
  Total Cataract (number of rats): 5
[1]; 75-300 mg/kg chow
  Inhibition of cataract formation: significantly inhibits cataract formation
Lean Zucker (fa/+) rats
  Cataracts in lean control rats: not present
[2]
  Effect on weight of the ovaries and the uterus: no effect
[3]
  Effect on body weight: no effect
  Effect on food intake: no effect
